biological target: T1, Human AhR (Homo sapiens, UniProt P35869); assay: Transactivation assay in human cell line (in vitro assay 1): antagonism; assay type: cell-based; conditions: U87 glioblastoma cells, AHR inducible firefly luciferase reporter (DRE), 150 μM kynurenic acid, 20 hours
T1 construct: host or cells: U87 glioblastoma cells, stably transfected with a DRE firefly luciferase reporter and a constitutive renilla reporter
T1 sequence (P35869 11-848): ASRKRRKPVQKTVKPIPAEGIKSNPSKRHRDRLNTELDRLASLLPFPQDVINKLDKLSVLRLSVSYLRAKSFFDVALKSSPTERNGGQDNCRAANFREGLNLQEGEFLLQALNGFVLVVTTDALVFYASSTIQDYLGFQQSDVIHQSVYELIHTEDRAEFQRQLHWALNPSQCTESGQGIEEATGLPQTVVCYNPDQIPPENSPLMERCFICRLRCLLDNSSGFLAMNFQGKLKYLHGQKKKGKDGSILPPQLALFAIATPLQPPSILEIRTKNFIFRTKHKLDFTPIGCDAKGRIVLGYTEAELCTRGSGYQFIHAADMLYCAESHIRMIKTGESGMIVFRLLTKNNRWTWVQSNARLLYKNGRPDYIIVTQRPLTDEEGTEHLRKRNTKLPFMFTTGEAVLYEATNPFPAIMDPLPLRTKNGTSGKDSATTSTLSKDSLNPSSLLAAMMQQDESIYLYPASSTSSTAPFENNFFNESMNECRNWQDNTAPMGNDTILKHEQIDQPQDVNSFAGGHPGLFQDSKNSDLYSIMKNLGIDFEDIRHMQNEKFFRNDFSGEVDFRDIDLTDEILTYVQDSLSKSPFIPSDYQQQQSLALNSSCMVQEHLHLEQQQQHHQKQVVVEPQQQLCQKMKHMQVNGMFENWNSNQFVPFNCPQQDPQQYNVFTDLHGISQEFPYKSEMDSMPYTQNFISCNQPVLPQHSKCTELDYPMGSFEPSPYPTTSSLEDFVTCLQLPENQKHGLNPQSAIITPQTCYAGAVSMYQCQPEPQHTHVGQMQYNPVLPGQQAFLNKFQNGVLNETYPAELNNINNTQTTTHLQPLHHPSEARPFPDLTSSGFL
Description: Examples were tested in selected biological assays one or more times. When tested more than once, data are reported as either average values or as median values, wherein • the average value, also referred to as the arithmetic mean value, represents the sum of the values obtained divided by the number of times tested, and • the median value represents the middle number of the group of values when ranked in ascending or descending order. If the number of values in the data set is odd, the median is the middle value. If the number of values in the data set is even, the median is the arithmetic mean of the two middle values.
Transactivation Assay in Human Cell Line (In Vitro Assay 1)
Transactivation assay was carried out in U87 glioblastoma cells (ATCC) endogenously expressing AHR. In addition the cells were stably transfected with an AHR inducible firefly luciferase reporter gene construct that carried AHR-binding sites (DRE) in its promoter and a renilla reporter gene construct with constitutively active promoter. Kynurenic acid is an endogenous AHR activating ligand and was used to prestimulate test cells prior to testing the antagonistic properties of compounds.
In Vitro Assay 1: Antagonism in Human Cell Line
Firefly luciferase and Renilla activity was determined by the DualGlo Luciferase Assay System (Promega, #2920). Renilla activity was used to assess toxic effects of compounds.

Row | Structure (SMILES) | IC50 [µM]
1 | C[C@@H](CO)NC(=O)c1cc(-c2ccc(OC(F)(F)F)cc2)nc(-c2cc(Cl)cc(Cl)c2)n1 [Example 34, 2-(3,5-dichlorophenyl)-N-[(2S)-1-hydroxypropan-2-yl]-6-[4-(trifluoromethoxy)phenyl]pyrimidine-4-carboxamide] | 0.17
2 | COc1ccc(-c2nc(C(=O)N[C@@H](C)CO)cc(-c3ccc(OC(F)(F)F)cc3)n2)cc1 [Example 30, N-[(2S)-1-hydroxypropan-2-yl]-2-(4-methoxyphenyl)-6-[4-(trifluoromethoxy)phenyl]pyrimidine-4-carboxamide] | 0.73
3 | C[C@@H](CO)NC(=O)c1cc(-c2ccc(OC(F)(F)F)cc2)nc(-c2ccc(Cl)c(Cl)c2)n1 [Example 38, 2-(3,4-dichlorophenyl)-N-[(2S)-1-hydroxypropan-2-yl]-6-[4-(trifluoromethoxy)phenyl]pyrimidine-4-carboxamide] | 4.35
4 | CC(O)C(NC(=O)c1cc(-c2ccc(OC(F)(F)F)cc2)nc(-c2cccc(F)c2)n1)C(F)(F)F (stereo not shown) [Example 91, 2-(3-fluorophenyl)-N-(1,1,1-trifluoro-3-hydroxybutan-2-yl)-6-[4-(trifluoromethoxy)phenyl]pyrimidine-4-carboxamide] | > 20
5 | CC(C)(O)CNC(=O)c1cc(-c2ccc(Cl)cc2)nc(-c2ccc(Cl)cc2)n1 [Example 46, 2,6-bis(4-chlorophenyl)-N-(2-hydroxy-2-methylpropyl)pyrimidine-4-carboxamide] | 9.79
6 | COc1ccc(-c2nc(C(=O)NCC(C)(C)O)cc(-c3ccc(Cl)cc3)n2)cc1 [Example 47, 6-(4-chlorophenyl)-N-(2-hydroxy-2-methylpropyl)-2-(4-methoxyphenyl)pyrimidine-4-carboxamide] | 2.22
7 | CC(C)(O)CNC(=O)c1cc(-c2ccc(Cl)cc2)nc(-c2cccc(F)c2)n1 [Example 1, 6-(4-Chlorophenyl)-2-(3-fluorophenyl)-N-(2-hydroxy-2-methylpropyl)pyrimidine-4-carboxamide] | > 20
8 | C[C@@H](CO)NC(=O)c1cc(-c2ccc(Cl)cc2)nc(-c2ccc(OC(F)(F)F)cc2)n1 [Example 73, 6-(4-chlorophenyl)-N-[(2S)-1-hydroxypropan-2-yl]-2-[4-(trifluoromethoxy)phenyl]pyrimidine-4-carboxamide] | 9.72
9 | CC(C)(O)CNC(=O)c1cc(-c2ccc(OC(F)(F)F)cc2)nc(-c2ccc(C(F)F)cc2)n1 [Example 25, 2-[4-(difluoromethyl)phenyl]-N-(2-hydroxy-2-methylpropyl)-6-[4-(trifluoromethoxy)phenyl]pyrimidine-4-carboxamide] | > 20
10 | C[C@@H](CO)NC(=O)c1cc(-c2ccc(Cl)cc2)nc(-c2ccc(Cl)c(Cl)c2)n1 [Example 72, 6-(4-chlorophenyl)-2-(3,4-dichlorophenyl)-N-[(2S)-1-hydroxypropan-2-yl]pyrimidine-4-carboxamide] | 0.361
11 | CC(C)(O)CNC(=O)c1cc(-c2ccc(Cl)cc2)nc(-c2ccc(Br)cc2)n1 [Example 44, 2-(4-bromophenyl)-6-(4-chlorophenyl)-N-(2-hydroxy-2-methylpropyl)pyrimidine-4-carboxamide] | > 20

Stronger by IC50, values ahead:

Row | IC50 [µM] | Structure (SMILES)
12 | 0.101 | C[C@@H](CO)NC(=O)c1cc(-c2ccc(Cl)cc2)nc(-c2cc(Cl)cc(Cl)c2)n1 [Example 67, 6-(4-chlorophenyl)-2-(3,5-dichlorophenyl)-N-[(2S)-1-hydroxypropan-2-yl]pyrimidine-4-carboxamide]
13 | 0.0402 | CC(C)(O)CNC(=O)c1cc(-c2ccc(OC(F)(F)F)cc2)nc(-c2cc(F)cc(C#N)c2)n1 [Example 26, 2-(3-cyano-5-fluorophenyl)-N-(2-hydroxy-2-methylpropyl)-6-[4-(trifluoromethoxy)phenyl]pyrimidine-4-carboxamide]
14 | 0.0776 | CC(C)(O)CNC(=O)c1cc(-c2ccc(Cl)cc2)nc(-c2cc(F)cc(C(F)(F)F)c2)n1 [Example 58, 6-(4-chlorophenyl)-2-[3-fluoro-5-(trifluoromethyl)phenyl]-N-(2-hydroxy-2-methylpropyl)pyrimidine-4-carboxamide]
15 | 0.026 | CC(C)(O)CNC(=O)c1cc(-c2ccc(OC(F)(F)F)cc2)nc(-c2ccc(F)cc2)n1 [Example 13, 2-(4-fluorophenyl)-N-(2-hydroxy-2-methylpropyl)-6-[4-(trifluoromethoxy)phenyl]pyrimidine-4-carboxamide]
16 | 0.102 | C[C@@H](CO)NC(=O)c1cc(-c2ccc(Cl)cc2)nc(-c2ccc(F)c(C#N)c2)n1 [Example 68, 6-(4-chlorophenyl)-2-(3-cyano-4-fluorophenyl)-N-[(2S)-1-hydroxypropan-2-yl]pyrimidine-4-carboxamide]
17 | 0.0783 | C[C@@H](CO)NC(=O)c1cc(-c2ccc(OC(F)(F)F)cc2)nc(-c2ccc(F)c(C#N)c2)n1 [Example 35, 2-(3-cyano-4-fluorophenyl)-N-[(2S)-1-hydroxypropan-2-yl]-6-[4-(trifluoromethoxy)phenyl]pyrimidine-4-carboxamide]
18 | 0.0264 | Cc1cc(F)cc(-c2nc(C(=O)N[C@@H](C)CO)cc(-c3ccc(Cl)cc3)n2)c1 [Example 77, 6-(4-chlorophenyl)-2-(3-fluoro-5-methylphenyl)-N-[(2S)-1-hydroxypropan-2-yl]pyrimidine-4-carboxamide]
19 | 0.0578 | CC(C)(O)CNC(=O)c1cc(-c2ccc(Cl)cc2)nc(-c2cc(F)cc(C#N)c2)n1 [Example 62, 6-(4-chlorophenyl)-2-(3-cyano-5-fluorophenyl)-N-(2-hydroxy-2-methylpropyl)pyrimidine-4-carboxamide]
20 | 0.112 | CC(C)(O)CNC(=O)c1cc(-c2ccc(Cl)cc2)nc(-c2ccc(F)c(C#N)c2)n1 [Example 52, 6-(4-chlorophenyl)-2-(3-cyano-4-fluorophenyl)-N-(2-hydroxy-2-methylpropyl)pyrimidine-4-carboxamide]
21 | 0.0978 | C[C@@H](CO)NC(=O)c1cc(-c2ccc(Cl)cc2)nc(-c2cc(F)cc(C(F)(F)F)c2)n1 [Example 75, 6-(4-chlorophenyl)-2-[3-fluoro-5-(trifluoromethyl)phenyl]-N-[(2S)-1-hydroxypropan-2-yl]pyrimidine-4-carboxamide]
22 | 0.0215 | C[C@@H](CO)NC(=O)c1cc(-c2ccc(OC(F)(F)F)cc2)nc(-c2cc(F)cc(C#N)c2)n1 [Example 43, 2-(3-cyano-5-fluorophenyl)-N-[(2S)-1-hydroxypropan-2-yl]-6-[4-(trifluoromethoxy)phenyl]pyrimidine-4-carboxamide]

— patent US11524944B2, “2-phenylpyrimidine-4-carboxamides as AHR inhibitors” (Bayer Aktiengesellschaft, priority 2017, dated 2022)
